# Measured values taken from US20050226913A1, “Article for inhibiting microbial growth in physiological fluids” (Eastman Kodak Company, priority 2004, published 2005).
# Assay: Stability constant (log βn) of ligand with Fe(III)
# Details: Fe(III) (target) minus Ca (interfering), from Table 1
# Excerpt: Herein the stability constant for the reaction of a metal-ion (M) and a sequestrant or ligand (L) is defined as follows: M+nL⇄MLn
# where the stability constant is βn=[MLn]/[M][L]^n, wherein [MLn] is the concentration of “complexed” metal-ion, [M] is the concentration of free (uncomplexed) metal-ion and [L] is the concentration of free ligand. The log of the stability constant is log βn, and n is the number of ligands, which coordinate with the metal.
compound,measurement,value
"O=C(O)CN(CCN(CC(=O)O)CC(=O)O)CCN(CC(=O)O)CC(=O)O [DTPA, diethylenetriaminepentaacetic acid]",selectivity: difference between the log stability constants,17.2
